Laboratory results reported in PubChem BioAssay (NCI).
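Briefly, cells in 96-well plates were exposed to five compound concentrations for 48 h, and endpoints were estimated by linear interpolation. GI50 is the concentration that inhibits growth by half. TGI: concentration producing complete growth inhibition.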

Tests used:
Experiment in all cases: growth of human tumour cells (NCI), 48 h
786-0 renal = tested on: 786-0 renal
A498 renal = tested on: A498 renal
A549 NSCLC = tested on: A549 NSCLC
ACHN renal = tested on: ACHN renal
BT-549 breast = tested on: BT-549 breast
CAKI-1 renal = tested on: CAKI-1 renal
CCRF-CEM leukemia = tested on: CCRF-CEM leukemia
COLO 205 colon = tested on: COLO 205 colon
DU-145 prostate = tested on: DU-145 prostate
EKVX NSCLC = tested on: EKVX NSCLC
HCC-2998 colon = tested on: HCC-2998 colon
HCT-116 colon = tested on: HCT-116 colon
HCT-15 colon = tested on: HCT-15 colon
HL-60(TB) leukemia = tested on: HL-60(TB) leukemia
HOP-62 NSCLC = tested on: HOP-62 NSCLC
HOP-92 NSCLC = tested on: HOP-92 NSCLC
HS 578T breast = tested on: HS 578T breast
HT29 colon = tested on: HT29 colon
IGROV1 ovarian = tested on: IGROV1 ovarian
K-562 leukemia = tested on: K-562 leukemia
KM12 colon = tested on: KM12 colon
LOX IMVI melanoma = tested on: LOX IMVI melanoma
M14 melanoma = tested on: M14 melanoma
MALME-3M melanoma = tested on: MALME-3M melanoma
MCF7 breast = tested on: MCF7 breast
MDA-MB-231 breast = tested on: MDA-MB-231 breast
MDA-MB-435 = tested on: MDA-MB-435
MDA-N = tested on: MDA-N
MOLT-4 leukemia = tested on: MOLT-4 leukemia
NCI-H226 lung = tested on: NCI-H226 lung
NCI-H23 lung = tested on: NCI-H23 lung
NCI-H460 lung = tested on: NCI-H460 lung
NCI-H522 lung = tested on: NCI-H522 lung
NCI/ADR-RES ovarian = tested on: NCI/ADR-RES ovarian
OVCAR-3 ovarian = tested on: OVCAR-3 ovarian
OVCAR-4 ovarian = tested on: OVCAR-4 ovarian
OVCAR-5 ovarian = tested on: OVCAR-5 ovarian
OVCAR-8 ovarian = tested on: OVCAR-8 ovarian
PC-3 prostate = tested on: PC-3 prostate
RPMI-8226 leukemia = tested on: RPMI-8226 leukemia
RXF 393 renal = tested on: RXF 393 renal
SF-268 CNS = tested on: SF-268 CNS
SF-295 CNS = tested on: SF-295 CNS
SF-539 CNS = tested on: SF-539 CNS
SK-MEL-2 melanoma = tested on: SK-MEL-2 melanoma
SK-MEL-28 melanoma = tested on: SK-MEL-28 melanoma
SK-MEL-5 melanoma = tested on: SK-MEL-5 melanoma
SK-OV-3 ovarian = tested on: SK-OV-3 ovarian
SN12C renal = tested on: SN12C renal
SNB-19 CNS = tested on: SNB-19 CNS
SNB-75 CNS = tested on: SNB-75 CNS
SW-620 colon = tested on: SW-620 colon
T-47D breast = tested on: T-47D breast
TK-10 renal = tested on: TK-10 renal
U251 CNS = tested on: U251 CNS
UACC-257 melanoma = tested on: UACC-257 melanoma
UACC-62 melanoma = tested on: UACC-62 melanoma
UO-31 renal = tested on: UO-31 renal
SR leukemia = tested on: SR leukemia

SMILES: Nc1ccc(-c2nc3ccccc3s2)cc1C(F)(F)F
- TGI (786-0 renal): 26.6 µM
- TGI (A498 renal): 31.4 µM
- TGI (A549 NSCLC): 37.4 µM
- TGI (ACHN renal): 28.5 µM
- TGI (BT-549 breast): 26.4 µM
- TGI (CAKI-1 renal): 28.7 µM
- TGI (CCRF-CEM leukemia): 95 µM
- TGI (COLO 205 colon): 36.7 µM
- TGI (DU-145 prostate): 29.2 µM
- TGI (EKVX NSCLC): 23.9 µM
- GI50 (HCC-2998 colon): 10.6 µM
- TGI (HCC-2998 colon): 22.4 µM
- TGI (HCT-116 colon): 26.1 µM
- TGI (HCT-15 colon): 27.6 µM
- TGI (HL-60(TB) leukemia): 36.9 µM
- TGI (HOP-62 NSCLC): 30 µM
- TGI (HOP-92 NSCLC): 33.2 µM
- TGI (HS 578T breast): 43.5 µM
- TGI (HT29 colon): 29.1 µM
- GI50 (IGROV1 ovarian): 2.6 µM
- TGI (IGROV1 ovarian): 21.1 µM
- TGI (K-562 leukemia): 46.6 µM
- TGI (KM12 colon): 31.2 µM
- TGI (LOX IMVI melanoma): 32.4 µM
- TGI (M14 melanoma): 28.7 µM
- TGI (MALME-3M melanoma): 29.4 µM
- TGI (MCF7 breast): 19.4 µM
- TGI (MDA-MB-231 breast): 26.3 µM
- TGI (MDA-MB-435): 30.2 µM
- TGI (MDA-N): 26.4 µM
- TGI (MOLT-4 leukemia): 52.4 µM
- GI50 (NCI-H226 lung): 15.3 µM
- TGI (NCI-H226 lung): 34.4 µM
- TGI (NCI-H23 lung): 28 µM
- GI50 (NCI-H460 lung): 14.6 µM
- TGI (NCI-H460 lung): 28.5 µM
- TGI (NCI-H522 lung): 31.6 µM
- TGI (NCI/ADR-RES ovarian): 35.2 µM
- TGI (OVCAR-3 ovarian): 30.2 µM
- GI50 (OVCAR-4 ovarian): 15.9 µM
- TGI (OVCAR-4 ovarian): 32.9 µM
- GI50 (OVCAR-5 ovarian): 17.5 µM
- TGI (OVCAR-5 ovarian): 32.2 µM
- TGI (OVCAR-8 ovarian): 43.1 µM
- TGI (PC-3 prostate): 29.1 µM
- TGI (RPMI-8226 leukemia): 44.6 µM
- TGI (RXF 393 renal): 21.9 µM
- TGI (SF-268 CNS): 30.4 µM
- TGI (SF-295 CNS): 32.1 µM
- TGI (SF-539 CNS): 37.7 µM
- TGI (SK-MEL-2 melanoma): 31.3 µM
- TGI (SK-MEL-28 melanoma): 33.9 µM
- TGI (SK-MEL-5 melanoma): 30.6 µM
- TGI (SK-OV-3 ovarian): 30.4 µM
- TGI (SN12C renal): 27.3 µM
- TGI (SNB-19 CNS): 33.2 µM
- TGI (SNB-75 CNS): 27.9 µM
- TGI (SW-620 colon): 35.3 µM
- TGI (T-47D breast): 20.6 µM
- TGI (TK-10 renal): 26 µM
- TGI (U251 CNS): 28.7 µM
- TGI (UACC-257 melanoma): 29 µM
- TGI (UACC-62 melanoma): 30.6 µM
- TGI (UO-31 renal): 29.4 µM

SMILES: Cc1ccc(OCCn2cc(Nc3ccccc3)c(=O)n(CCOc3ccc(C)cc3)c2=O)cc1
- TGI (786-0 renal): > 100 µM
- TGI (A498 renal): > 100 µM
- TGI (A549 NSCLC): > 100 µM
- TGI (ACHN renal): > 100 µM
- TGI (BT-549 breast): > 100 µM
- TGI (CAKI-1 renal): > 100 µM
- TGI (CCRF-CEM leukemia): > 100 µM
- TGI (COLO 205 colon): > 100 µM
- TGI (DU-145 prostate): > 100 µM
- TGI (EKVX NSCLC): > 100 µM
- TGI (HCC-2998 colon): > 100 µM
- TGI (HCT-116 colon): > 100 µM
- TGI (HCT-15 colon): > 100 µM
- TGI (HOP-92 NSCLC): > 100 µM
- TGI (HS 578T breast): > 100 µM
- TGI (HT29 colon): > 100 µM
- TGI (IGROV1 ovarian): > 100 µM
- TGI (K-562 leukemia): > 100 µM
- TGI (KM12 colon): > 100 µM
- TGI (LOX IMVI melanoma): > 100 µM
- TGI (M14 melanoma): > 100 µM
- TGI (MALME-3M melanoma): > 100 µM
- TGI (MCF7 breast): > 100 µM
- TGI (MDA-MB-231 breast): > 100 µM
- TGI (MDA-MB-435): > 100 µM
- TGI (MDA-N): > 100 µM
- TGI (MOLT-4 leukemia): > 100 µM
- TGI (NCI-H226 lung): > 100 µM
- TGI (NCI-H23 lung): > 100 µM
- TGI (NCI-H460 lung): > 100 µM
- TGI (NCI-H522 lung): > 100 µM
- TGI (NCI/ADR-RES ovarian): > 100 µM
- TGI (OVCAR-3 ovarian): > 100 µM
- TGI (OVCAR-4 ovarian): > 100 µM
- TGI (OVCAR-5 ovarian): > 100 µM
- TGI (OVCAR-8 ovarian): > 100 µM
- TGI (PC-3 prostate): > 100 µM
- TGI (RPMI-8226 leukemia): > 100 µM
- TGI (RXF 393 renal): > 100 µM
- TGI (SF-268 CNS): > 100 µM
- TGI (SF-295 CNS): > 100 µM
- TGI (SF-539 CNS): > 100 µM
- TGI (SK-MEL-2 melanoma): > 100 µM
- TGI (SK-MEL-28 melanoma): > 100 µM
- TGI (SK-MEL-5 melanoma): > 100 µM
- TGI (SN12C renal): > 100 µM
- TGI (SNB-19 CNS): > 100 µM
- TGI (SNB-75 CNS): > 100 µM
- TGI (SW-620 colon): > 100 µM
- TGI (T-47D breast): > 100 µM
- TGI (TK-10 renal): > 100 µM
- TGI (U251 CNS): > 100 µM
- TGI (UACC-257 melanoma): > 100 µM
- TGI (UACC-62 melanoma): > 100 µM
- TGI (UO-31 renal): > 100 µM

SMILES: CC(=O)c1cccn1/C=C(\OC(=O)OC(C)(C)C)c1ccc[nH]1
- TGI (786-0 renal): > 100 µM
- TGI (A498 renal): > 100 µM
- TGI (A549 NSCLC): > 100 µM
- TGI (ACHN renal): > 100 µM
- TGI (BT-549 breast): > 100 µM
- TGI (CAKI-1 renal): 91.2 µM
- TGI (CCRF-CEM leukemia): > 100 µM
- TGI (COLO 205 colon): > 100 µM
- TGI (DU-145 prostate): > 100 µM
- TGI (EKVX NSCLC): > 100 µM
- TGI (HCC-2998 colon): > 100 µM
- TGI (HCT-116 colon): > 100 µM
- TGI (HCT-15 colon): > 100 µM
- TGI (HL-60(TB) leukemia): 98.1 µM
- TGI (HOP-62 NSCLC): > 100 µM
- TGI (HS 578T breast): > 100 µM
- TGI (IGROV1 ovarian): > 100 µM
- TGI (K-562 leukemia): > 100 µM
- TGI (KM12 colon): > 100 µM
- TGI (LOX IMVI melanoma): > 100 µM
- TGI (M14 melanoma): > 100 µM
- TGI (MALME-3M melanoma): > 100 µM
- TGI (MCF7 breast): > 100 µM
- TGI (MDA-MB-231 breast): > 100 µM
- TGI (MDA-MB-435): > 100 µM
- TGI (MDA-N): > 100 µM
- TGI (MOLT-4 leukemia): > 100 µM
- TGI (NCI-H226 lung): > 100 µM
- TGI (NCI-H23 lung): > 100 µM
- TGI (NCI-H460 lung): > 100 µM
- TGI (NCI-H522 lung): > 100 µM
- TGI (NCI/ADR-RES ovarian): > 100 µM
- TGI (OVCAR-3 ovarian): > 100 µM
- TGI (OVCAR-4 ovarian): > 100 µM
- TGI (OVCAR-5 ovarian): > 100 µM
- TGI (OVCAR-8 ovarian): > 100 µM
- TGI (PC-3 prostate): > 100 µM
- TGI (RPMI-8226 leukemia): > 100 µM
- TGI (RXF 393 renal): > 100 µM
- TGI (SF-268 CNS): > 100 µM
- TGI (SF-295 CNS): > 100 µM
- TGI (SK-MEL-2 melanoma): > 100 µM
- TGI (SK-MEL-28 melanoma): > 100 µM
- TGI (SK-MEL-5 melanoma): > 100 µM
- TGI (SN12C renal): > 100 µM
- TGI (SNB-19 CNS): > 100 µM
- TGI (SNB-75 CNS): 67.2 µM
- TGI (SR leukemia): > 100 µM
- TGI (SW-620 colon): > 100 µM
- TGI (T-47D breast): > 100 µM
- TGI (TK-10 renal): > 100 µM
- TGI (U251 CNS): > 100 µM
- TGI (UACC-257 melanoma): > 100 µM
- TGI (UACC-62 melanoma): > 100 µM
- TGI (UO-31 renal): > 100 µM
